Data: the NIST ThermoML archive (doi:10.1016/j.jct.2012.03.003)

Assay: xn = mol fraction of the nth substance listed
Details: Liquid, Vibrating tube method

COc1cc2c(cc1O)CC1c3c(cc(O)c(OC)c3-2)CCN1C (stereo not given) [boldine] + CCCO
Details	mass density [kg/m3]
323.11 K, 16000 kPa, x1 = 0.0112	811.88
323.11 K, 16000 kPa, x1 = 0.0142	816.47
323.11 K, 17000 kPa, x1 = 0.0112	812.65
323.11 K, 17000 kPa, x1 = 0.0142	817.24
323.11 K, 18000 kPa, x1 = 0.0112	813.42
323.11 K, 18000 kPa, x1 = 0.0142	818
323.11 K, 19000 kPa, x1 = 0.0112	814.16
323.11 K, 19000 kPa, x1 = 0.0142	818.74
323.11 K, 20000 kPa, x1 = 0.0112	814.92
323.11 K, 20000 kPa, x1 = 0.0142	819.49
323.12 K, 1000 kPa, x1 = 0.0077	792.79
323.12 K, 2000 kPa, x1 = 0.0077	793.61
323.12 K, 3000 kPa, x1 = 0.0077	794.44
323.12 K, 4000 kPa, x1 = 0.0077	795.28
323.12 K, 5000 kPa, x1 = 0.0077	796.12
323.12 K, 6000 kPa, x1 = 0.0077	796.97
323.12 K, 7000 kPa, x1 = 0.0077	797.82
323.12 K, 8000 kPa, x1 = 0.0077	798.67
323.12 K, 9000 kPa, x1 = 0.0077	799.51
323.12 K, 10000 kPa, x1 = 0.0077	800.35
323.12 K, 11000 kPa, x1 = 0.0077	801.2
323.12 K, 12000 kPa, x1 = 0.0077	802.03
323.12 K, 13000 kPa, x1 = 0.0077	802.85
323.12 K, 14000 kPa, x1 = 0.0077	803.66
323.12 K, 15000 kPa, x1 = 0.0077	804.47
323.12 K, 16000 kPa, x1 = 0.0077	805.27
323.12 K, 17000 kPa, x1 = 0.0077	806.04
323.12 K, 18000 kPa, x1 = 0.0077	806.81
323.12 K, 19000 kPa, x1 = 0.0077	807.57
323.12 K, 20000 kPa, x1 = 0.0077	808.3
323.14 K, 1000 kPa, x1 = 0.0046	788.94
323.14 K, 2000 kPa, x1 = 0.0046	789.78
323.14 K, 3000 kPa, x1 = 0.0046	790.61
323.14 K, 4000 kPa, x1 = 0.0046	791.45
323.14 K, 5000 kPa, x1 = 0.0046	792.3
323.14 K, 6000 kPa, x1 = 0.0046	793.15
323.14 K, 7000 kPa, x1 = 0.0046	794.01
323.14 K, 8000 kPa, x1 = 0.0046	794.86
323.14 K, 9000 kPa, x1 = 0.0046	795.72
323.14 K, 10000 kPa, x1 = 0.0046	796.56
323.14 K, 11000 kPa, x1 = 0.0046	797.4
323.14 K, 12000 kPa, x1 = 0.0046	798.24
323.14 K, 13000 kPa, x1 = 0.0046	799.07
323.14 K, 14000 kPa, x1 = 0.0046	799.88
323.14 K, 15000 kPa, x1 = 0.0046	800.71
323.14 K, 16000 kPa, x1 = 0.0046	801.5
323.14 K, 17000 kPa, x1 = 0.0046	802.28
323.14 K, 18000 kPa, x1 = 0.0046	803.06
323.14 K, 19000 kPa, x1 = 0.0046	803.81
323.14 K, 20000 kPa, x1 = 0.0046	804.56
333.04 K, 1000 kPa, x1 = 0.0018	774.01
333.04 K, 1000 kPa, x1 = 0.0077	784.16
333.04 K, 1000 kPa, x1 = 0.0112	790.89
333.04 K, 1000 kPa, x1 = 0.0142	795.51
333.04 K, 2000 kPa, x1 = 0.0018	774.92
333.04 K, 2000 kPa, x1 = 0.0077	785.05
333.04 K, 2000 kPa, x1 = 0.0112	791.78
333.04 K, 2000 kPa, x1 = 0.0142	796.38
333.04 K, 3000 kPa, x1 = 0.0018	775.82
333.04 K, 3000 kPa, x1 = 0.0077	785.95
333.04 K, 3000 kPa, x1 = 0.0112	792.66
333.04 K, 3000 kPa, x1 = 0.0142	797.27
333.04 K, 4000 kPa, x1 = 0.0018	776.73
333.04 K, 4000 kPa, x1 = 0.0077	786.85
333.04 K, 4000 kPa, x1 = 0.0112	793.55
333.04 K, 4000 kPa, x1 = 0.0142	798.15
333.04 K, 5000 kPa, x1 = 0.0018	777.64
333.04 K, 5000 kPa, x1 = 0.0077	787.74
333.04 K, 5000 kPa, x1 = 0.0112	794.46
333.04 K, 5000 kPa, x1 = 0.0142	799.05
333.04 K, 6000 kPa, x1 = 0.0018	778.55
333.04 K, 6000 kPa, x1 = 0.0077	788.65
333.04 K, 6000 kPa, x1 = 0.0112	795.35
333.04 K, 6000 kPa, x1 = 0.0142	799.92
333.04 K, 7000 kPa, x1 = 0.0018	779.47
333.04 K, 7000 kPa, x1 = 0.0077	789.55
333.04 K, 7000 kPa, x1 = 0.0112	796.25
333.04 K, 7000 kPa, x1 = 0.0142	800.8
333.04 K, 8000 kPa, x1 = 0.0018	780.38
333.04 K, 8000 kPa, x1 = 0.0077	790.45
333.04 K, 8000 kPa, x1 = 0.0112	797.14
333.04 K, 8000 kPa, x1 = 0.0142	801.7
333.04 K, 9000 kPa, x1 = 0.0018	781.29
333.04 K, 9000 kPa, x1 = 0.0077	791.35
333.04 K, 9000 kPa, x1 = 0.0112	798.03
333.04 K, 9000 kPa, x1 = 0.0142	802.57
333.04 K, 10000 kPa, x1 = 0.0018	782.18
333.04 K, 10000 kPa, x1 = 0.0077	792.22
333.04 K, 10000 kPa, x1 = 0.0112	798.91
333.04 K, 10000 kPa, x1 = 0.0142	803.44
333.04 K, 11000 kPa, x1 = 0.0018	783.07
333.04 K, 11000 kPa, x1 = 0.0077	793.11
333.04 K, 11000 kPa, x1 = 0.0112	799.78
333.04 K, 11000 kPa, x1 = 0.0142	804.31
333.04 K, 12000 kPa, x1 = 0.0018	783.97
333.04 K, 12000 kPa, x1 = 0.0077	793.99
333.04 K, 12000 kPa, x1 = 0.0112	800.64
333.04 K, 12000 kPa, x1 = 0.0142	805.16
333.04 K, 13000 kPa, x1 = 0.0018	784.84
333.04 K, 13000 kPa, x1 = 0.0077	794.86
333.04 K, 13000 kPa, x1 = 0.0112	801.49
333.04 K, 13000 kPa, x1 = 0.0142	806.02
333.04 K, 14000 kPa, x1 = 0.0018	785.7
333.04 K, 14000 kPa, x1 = 0.0077	795.71
333.04 K, 14000 kPa, x1 = 0.0112	802.35
333.04 K, 14000 kPa, x1 = 0.0142	806.86
333.04 K, 15000 kPa, x1 = 0.0018	786.56
333.04 K, 15000 kPa, x1 = 0.0077	796.55
333.04 K, 15000 kPa, x1 = 0.0112	803.19
333.04 K, 15000 kPa, x1 = 0.0142	807.69
333.04 K, 16000 kPa, x1 = 0.0018	787.41
333.04 K, 16000 kPa, x1 = 0.0077	797.38
333.04 K, 16000 kPa, x1 = 0.0112	804
333.04 K, 16000 kPa, x1 = 0.0142	808.51
333.04 K, 17000 kPa, x1 = 0.0018	788.23
333.04 K, 17000 kPa, x1 = 0.0077	798.2
333.04 K, 17000 kPa, x1 = 0.0112	804.81
333.04 K, 17000 kPa, x1 = 0.0142	809.32
333.04 K, 18000 kPa, x1 = 0.0018	789.05
333.04 K, 18000 kPa, x1 = 0.0077	799.02
333.04 K, 18000 kPa, x1 = 0.0112	805.61
333.04 K, 18000 kPa, x1 = 0.0142	810.12
333.04 K, 19000 kPa, x1 = 0.0018	789.86
333.04 K, 19000 kPa, x1 = 0.0077	799.81
333.04 K, 19000 kPa, x1 = 0.0112	806.39
333.04 K, 19000 kPa, x1 = 0.0142	810.91
333.04 K, 20000 kPa, x1 = 0.0018	790.65
333.04 K, 20000 kPa, x1 = 0.0077	800.56
333.04 K, 20000 kPa, x1 = 0.0112	807.16
333.04 K, 20000 kPa, x1 = 0.0142	811.68
333.07 K, 1000 kPa, x1 = 0.0046	780.3
333.07 K, 2000 kPa, x1 = 0.0046	781.23
333.07 K, 3000 kPa, x1 = 0.0046	782.1
333.07 K, 4000 kPa, x1 = 0.0046	783.02
333.07 K, 5000 kPa, x1 = 0.0046	783.92
333.07 K, 6000 kPa, x1 = 0.0046	784.83
333.07 K, 7000 kPa, x1 = 0.0046	785.74
333.07 K, 8000 kPa, x1 = 0.0046	786.64
333.07 K, 9000 kPa, x1 = 0.0046	787.54
333.07 K, 10000 kPa, x1 = 0.0046	788.44
333.07 K, 11000 kPa, x1 = 0.0046	789.33
333.07 K, 12000 kPa, x1 = 0.0046	790.21
333.07 K, 13000 kPa, x1 = 0.0046	791.08
333.07 K, 14000 kPa, x1 = 0.0046	791.94
333.07 K, 15000 kPa, x1 = 0.0046	792.79
333.07 K, 16000 kPa, x1 = 0.0046	793.62
333.07 K, 17000 kPa, x1 = 0.0046	794.45
333.07 K, 18000 kPa, x1 = 0.0046	795.27
333.07 K, 19000 kPa, x1 = 0.0046	796.06
333.07 K, 20000 kPa, x1 = 0.0046	796.84
